Results on 7 compounds are retold here after PubChem BioAssay (NCI).

Among the test systems are BT-549 breast; TK-10 renal; SK-MEL-5 melanoma; NCI-H23 lung; MALME-3M melanoma; M14 melanoma; LOX IMVI melanoma; HCT-15 colon; HCC-2998 colon; OVCAR-4 ovarian.
Common to all, as to experiment: growth of human tumour cells (NCI), 48 h

Where “and” joins values, the source holds several entries; their conditions need not be identical. Identical values can stand only once.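 A five-concentration, 48-hour dose response in 96-well plates underlies each endpoint, interpolated linearly between surrounding concentrations. GI50 is the concentration that inhibits growth by half. TGI is the concentration that stops growth completely.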

`CC(C)C[C@@H](NC(=O)[C@@H](Cc1ccccc1)NC(=O)c1cnccn1)B1O[C@H]2[C@H](O)[C@@H](C(=O)NCCCC[C@@H]3NC(=O)[C@@H](Cc4ccccc4)NC(=O)[C@H](CC(=O)O)NC(=O)CNC(=O)[C@H](CCCN=C(N)N)NC3=O)O[C@@H](CN)[C@H]2O1`: the GI50 is 0.003 µM and 0.005 µM in the test on BT-549 breast; 0.00308 µM and 0.005 µM in the test with TK-10 renal; 0.00457 µM and 0.005 µM in the test on SK-MEL-5 melanoma; 0.0108 µM and 0.005 µM in the test with NCI-H23 lung; 0.00457 µM and 0.005 µM in the test with MALME-3M melanoma; 0.00392 µM and 0.005 µM with M14 melanoma. The GI50 was 0.00397 µM and 0.005 µM in the test on LOX IMVI melanoma; 0.0113 µM and 0.00703 µM with HCT-15 colon; 0.016 µM and 0.00799 µM in the test on HCC-2998 colon; 0.00935 µM and 0.005 µM in the test with OVCAR-4 ovarian. The TGI with BT-549 breast is 0.0112 µM and 0.0113 µM; in the test with TK-10 renal, 0.0249 µM and 0.00851 µM; in the test on SK-MEL-5 melanoma, 0.0188 µM and 0.00855 µM; in the test with NCI-H23 lung, 0.0943 µM and 0.0537 µM; in the test with MALME-3M melanoma it was 0.127 µM and 0.591 µM; in the test on M14 melanoma, 0.116 µM and 0.0141 µM. The TGI in the test on LOX IMVI melanoma was 0.0159 µM and 0.0058 µM; with HCT-15 colon, 0.0659 µM and 0.0376 µM; in the test on HCC-2998 colon, 0.0323 µM and 0.0165 µM; with OVCAR-4 ovarian, 0.451 µM and 1.09 µM.
With `c1ccc(N=C2c3ccccc3CN2c2ccccc2)cc1`, the TGI in the test on BT-549 breast, in the test on TK-10 renal, in the test with SK-MEL-5 melanoma, in the test on NCI-H23 lung, in the test on MALME-3M melanoma and with M14 melanoma was greater than 100 µM in each case. Moreover, the TGI with LOX IMVI melanoma, in the test with HCT-15 colon, in the test on HCC-2998 colon and in the test on OVCAR-4 ovarian was greater than 100 µM each time.
As to `COc1cc(/C=C(/C)[N+](=O)[O-])ccc1O`, the GI50 was 2.34 µM and 3.08 µM in the test on BT-549 breast; 1.97 µM and 1.48 µM in the test on TK-10 renal; 1.91 µM and 1.9 µM with SK-MEL-5 melanoma; 2.05 µM and 2.09 µM in the test with NCI-H23 lung; 2 µM and 1.53 µM in the test on MALME-3M melanoma; 1.83 µM and 1.85 µM with M14 melanoma. In addition, the GI50 in the test on LOX IMVI melanoma was 1.59 µM and 1.58 µM; with HCT-15 colon, 2.34 µM and 2 µM; in the test with HCC-2998 colon it was 1.77 µM and 1.68 µM; with OVCAR-4 ovarian it was 2.62 µM and 1.69 µM. The TGI was 4.67 µM and 8.82 µM in the test with BT-549 breast; 3.57 µM and 2.82 µM with TK-10 renal; 3.92 µM and 3.57 µM in the test with SK-MEL-5 melanoma; 5.23 µM in the test on NCI-H23 lung; 4.08 µM and 3.58 µM with MALME-3M melanoma; 3.79 µM and 3.6 µM with M14 melanoma. Besides, the TGI in the test on LOX IMVI melanoma was 3.27 µM and 3 µM; with HCT-15 colon, 7.4 µM and 6.21 µM; in the test with HCC-2998 colon, 3.28 µM and 3.08 µM; in the test on OVCAR-4 ovarian, 7.6 µM and 3.18 µM.
For the compound `O=C(Nc1ccc(S(=O)(=O)Nc2nccs2)cc1)c1cccnc1Nc1cccc(Cl)c1`, the GI50 in the test on BT-549 breast was 16 µM; in the test on TK-10 renal it was 22.8 µM; in the test on SK-MEL-5 melanoma, 11.3 µM; in the test on NCI-H23 lung, 12.9 µM; in the test with MALME-3M melanoma, 16.9 µM; in the test on M14 melanoma it was 15.7 µM. The GI50 is 7.31 µM with LOX IMVI melanoma, 13.5 µM in the test on HCT-15 colon, 14.1 µM in the test on HCC-2998 colon and 16.3 µM in the test with OVCAR-4 ovarian. Besides, the TGI with BT-549 breast was found to be 39.3 µM; in the test with TK-10 renal, 51.1 µM; in the test with SK-MEL-5 melanoma, 23.5 µM; with NCI-H23 lung it was 28.5 µM; in the test on MALME-3M melanoma it was 48.1 µM; with M14 melanoma it was 34.9 µM. Moreover, the TGI was 19.9 µM with LOX IMVI melanoma, 27.5 µM with HCT-15 colon, 27.9 µM in the test with HCC-2998 colon and 69.3 µM in the test with OVCAR-4 ovarian.
For the compound `Oc1c(CN2CCC(N3CCOCC3)CC2)cc(Cc2cc(CN3CCC(N4CCOCC4)CC3)c(O)c3ncccc23)c2cccnc12`, the GI50 is 1.2 µM in the test on BT-549 breast; 1.12 µM with TK-10 renal; 1.59 µM in the test on SK-MEL-5 melanoma; 2.07 µM in the test with NCI-H23 lung; 4.22 µM in the test with MALME-3M melanoma; 0.61 µM with M14 melanoma. In addition, the GI50 in the test with LOX IMVI melanoma is 0.466 µM; in the test on HCT-15 colon, 0.633 µM; in the test on HCC-2998 colon it was 1.52 µM; in the test on OVCAR-4 ovarian, 0.434 µM. The TGI was 29 µM in the test on BT-549 breast; 16.7 µM with TK-10 renal; 5.11 µM in the test on SK-MEL-5 melanoma; greater than 100 µM with NCI-H23 lung; 26.5 µM in the test on MALME-3M melanoma; 17.1 µM in the test on M14 melanoma. Further, the TGI was 4.54 µM in the test on LOX IMVI melanoma, 26.4 µM with HCT-15 colon, 13.5 µM in the test on HCC-2998 colon and greater than 100 µM with OVCAR-4 ovarian.
As for `COc1ccc(C(=O)Cn2c(C(=O)c3ccc(Cl)cc3)nc3ccccc32)cc1`, the GI50 in the test with BT-549 breast is greater than 38.7 µM; in the test with TK-10 renal, greater than 62.9 µM; in the test with SK-MEL-5 melanoma, 5.95 µM; in the test with NCI-H23 lung, greater than 57.9 µM; with MALME-3M melanoma, greater than 56.3 µM; in the test on M14 melanoma it was 3.69 µM. The GI50 in the test with LOX IMVI melanoma is 17.5 µM; in the test with HCT-15 colon it was 3.88 µM; in the test with HCC-2998 colon, 6.55 µM; with OVCAR-4 ovarian it was greater than 84.1 µM. Moreover, the TGI is greater than 100 µM with BT-549 breast; greater than 100 µM in the test with TK-10 renal; greater than 100 µM in the test with SK-MEL-5 melanoma; greater than 100 µM in the test with NCI-H23 lung; greater than 100 µM in the test on MALME-3M melanoma; greater than 39.3 µM in the test with M14 melanoma. The TGI in the test with LOX IMVI melanoma, in the test with HCT-15 colon, with HCC-2998 colon and in the test on OVCAR-4 ovarian was greater than 100 µM in each case.
Turning to `CNc1ccccc1C(=O)N/N=C/C=C/c1ccccc1`, the GI50 with BT-549 breast was 53.2 µM; with TK-10 renal, 3.33 µM; in the test with SK-MEL-5 melanoma, 0.849 µM; in the test on NCI-H23 lung, 7.93 µM; with MALME-3M melanoma, 9.91 µM; with M14 melanoma, 0.6 µM. The GI50 in the test on LOX IMVI melanoma was 1.34 µM; in the test with HCT-15 colon, 0.457 µM; in the test with HCC-2998 colon it was 8.82 µM; in the test on OVCAR-4 ovarian it was 5.61 µM. Moreover, the TGI in the test with BT-549 breast is greater than 100 µM; in the test on TK-10 renal it was greater than 100 µM; with SK-MEL-5 melanoma, 31.3 µM; with NCI-H23 lung it was greater than 100 µM; in the test with MALME-3M melanoma it was 97.4 µM; with M14 melanoma, 24.8 µM. Also, the TGI is greater than 100 µM with LOX IMVI melanoma, greater than 74.1 µM with HCT-15 colon, 36.3 µM with HCC-2998 colon and greater than 48.5 µM with OVCAR-4 ovarian.
